For eleven molecules, IC50 results are on record in patent publication US20260183275A1, “SUBSTITUTED QUINOLONE COMPOUNDS USEFUL AS INHIBITORS OF TLR9” (Bristol-Myers Squibb Company, priority 2022, published 2026).

Format in all cases: cell-based
One assay concerns the target T1, human TLR9 (Homo sapiens, UniProt Q9NR96).
T1 construct: host or cells: HEK-Blue cells
T1 sequence (Q9NR96 26-1032): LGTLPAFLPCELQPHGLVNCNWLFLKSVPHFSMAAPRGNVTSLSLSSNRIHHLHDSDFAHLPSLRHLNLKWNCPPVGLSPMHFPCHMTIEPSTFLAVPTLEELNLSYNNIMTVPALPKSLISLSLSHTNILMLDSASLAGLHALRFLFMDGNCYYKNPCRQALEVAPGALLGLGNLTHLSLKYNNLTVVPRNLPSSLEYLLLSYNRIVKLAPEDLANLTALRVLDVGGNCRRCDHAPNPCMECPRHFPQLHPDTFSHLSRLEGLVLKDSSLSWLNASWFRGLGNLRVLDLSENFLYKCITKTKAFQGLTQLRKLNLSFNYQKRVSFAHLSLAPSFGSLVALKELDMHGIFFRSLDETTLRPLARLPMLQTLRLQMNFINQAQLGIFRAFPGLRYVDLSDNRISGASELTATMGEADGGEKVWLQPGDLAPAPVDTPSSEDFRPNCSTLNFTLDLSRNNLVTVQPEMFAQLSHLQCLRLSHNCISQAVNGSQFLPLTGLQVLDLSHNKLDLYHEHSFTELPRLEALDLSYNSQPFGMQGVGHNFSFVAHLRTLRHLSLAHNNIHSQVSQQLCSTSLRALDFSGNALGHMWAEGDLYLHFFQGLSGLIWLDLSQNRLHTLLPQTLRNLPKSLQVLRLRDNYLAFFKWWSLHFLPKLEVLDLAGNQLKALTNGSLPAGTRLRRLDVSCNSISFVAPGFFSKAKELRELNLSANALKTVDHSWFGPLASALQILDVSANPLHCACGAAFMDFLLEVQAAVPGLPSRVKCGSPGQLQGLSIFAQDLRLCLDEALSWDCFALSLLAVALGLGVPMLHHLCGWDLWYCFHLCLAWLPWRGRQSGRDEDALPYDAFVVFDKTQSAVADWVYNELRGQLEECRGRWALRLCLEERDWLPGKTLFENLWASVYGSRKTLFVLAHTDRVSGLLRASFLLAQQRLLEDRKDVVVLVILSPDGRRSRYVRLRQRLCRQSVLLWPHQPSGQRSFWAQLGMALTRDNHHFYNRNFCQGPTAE
Description: TLR9 inhibition reporter assay (HEK-Blue cells, SEAP reporter). The settings on record: HEK-Blue cells overexpressing human TLR9; stimulated with ODN2006 5 nM; SEAP read after 22 hour; dose range 0.05 nM-50 μM. Here is the method:
(§1) HEK-Blue™-cells (Invivogen) overexpressing human TLR7, TLR8 or TLR9 receptors were used for screening inhibitors of these receptors using an inducible SEAP (secreted embryonic alkaline phosphatase) reporter gene under the control of the IFN-β minimal promoter fused to five NF-κB and AP-1-binding sites. Briefly, cells are seeded into Greiner 384 well plates (15000 cells per well for TLR7, 20,000 for TLR8 and 25,000 for TLR9) and then treated with test compounds in DMSO to yield a final dose response concentration range of 0.05 nM-50 μM. After a 30 minute compound pre-treatment at room temperature, the cells are then stimulated with a TLR7 ligand (gardiquimod at a final concentration of 7.5 μM), TLR8 ligand (R848 at a final concentration of 15.9 μM) or TLR9 ligand (ODN2006 at a final concentration of 5 nM) to activate NF-κB and AP-1 which induce the production of SEAP. After a 22 hour incubation at 37° C., 5% CO2, SEAP levels are determined with the addition of HEK-Blue™ Detection reagent (Invivogen), a cell culture medium that allows for detection of SEAP, according to manufacturer's specifications. The percent inhibition is determined as the % reduction in the HEK-Blue signal present in wells treated with agonist plus DMSO alone compared to wells treated with a known inhibitor.
Background: In a reporter assay the amount or activity of a reporter protein is the signal.

For the next assay, the target named is T2, human TLR8 (Homo sapiens, UniProt Q9NR97).
T2 construct: host or cells: HEK-Blue cells
T2 sequence (Q9NR97 27-1041): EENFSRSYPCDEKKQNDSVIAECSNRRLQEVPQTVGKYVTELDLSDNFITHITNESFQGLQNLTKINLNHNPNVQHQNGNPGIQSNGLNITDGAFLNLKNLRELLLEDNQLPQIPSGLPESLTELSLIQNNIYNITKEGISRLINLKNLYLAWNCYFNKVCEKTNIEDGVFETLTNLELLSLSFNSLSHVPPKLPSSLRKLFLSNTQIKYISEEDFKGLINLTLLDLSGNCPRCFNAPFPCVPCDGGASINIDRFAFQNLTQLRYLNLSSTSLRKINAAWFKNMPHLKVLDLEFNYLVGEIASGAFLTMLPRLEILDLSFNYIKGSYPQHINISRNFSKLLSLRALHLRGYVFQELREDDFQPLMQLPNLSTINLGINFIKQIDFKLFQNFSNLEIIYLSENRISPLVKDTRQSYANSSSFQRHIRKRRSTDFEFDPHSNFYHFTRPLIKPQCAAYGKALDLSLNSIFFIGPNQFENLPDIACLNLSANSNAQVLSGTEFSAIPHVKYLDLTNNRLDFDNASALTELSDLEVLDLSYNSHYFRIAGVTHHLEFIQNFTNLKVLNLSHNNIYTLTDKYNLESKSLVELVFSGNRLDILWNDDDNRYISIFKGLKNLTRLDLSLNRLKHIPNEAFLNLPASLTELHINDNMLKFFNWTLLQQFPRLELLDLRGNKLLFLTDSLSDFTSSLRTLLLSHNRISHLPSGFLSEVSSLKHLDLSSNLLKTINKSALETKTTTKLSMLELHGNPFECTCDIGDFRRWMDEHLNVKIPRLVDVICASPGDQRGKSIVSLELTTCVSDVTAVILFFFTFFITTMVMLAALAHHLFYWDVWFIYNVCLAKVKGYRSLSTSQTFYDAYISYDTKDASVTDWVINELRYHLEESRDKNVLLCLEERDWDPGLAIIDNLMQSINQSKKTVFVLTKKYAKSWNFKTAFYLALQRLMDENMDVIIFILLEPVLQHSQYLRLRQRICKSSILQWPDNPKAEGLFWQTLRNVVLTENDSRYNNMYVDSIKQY
Description: TLR8 inhibition reporter assay (HEK-Blue cells, SEAP reporter). To be noted: HEK-Blue cells overexpressing human TLR8; stimulated with R848 15.9 μM; SEAP read after 22 hour; dose range 0.05 nM-50 μM. On the procedure: as §1

For another assay, the target named is T3, human TLR7 (Homo sapiens, UniProt Q9NYK1).
T3 construct: host or cells: HEK-Blue cells
T3 sequence (Q9NYK1 27-1049): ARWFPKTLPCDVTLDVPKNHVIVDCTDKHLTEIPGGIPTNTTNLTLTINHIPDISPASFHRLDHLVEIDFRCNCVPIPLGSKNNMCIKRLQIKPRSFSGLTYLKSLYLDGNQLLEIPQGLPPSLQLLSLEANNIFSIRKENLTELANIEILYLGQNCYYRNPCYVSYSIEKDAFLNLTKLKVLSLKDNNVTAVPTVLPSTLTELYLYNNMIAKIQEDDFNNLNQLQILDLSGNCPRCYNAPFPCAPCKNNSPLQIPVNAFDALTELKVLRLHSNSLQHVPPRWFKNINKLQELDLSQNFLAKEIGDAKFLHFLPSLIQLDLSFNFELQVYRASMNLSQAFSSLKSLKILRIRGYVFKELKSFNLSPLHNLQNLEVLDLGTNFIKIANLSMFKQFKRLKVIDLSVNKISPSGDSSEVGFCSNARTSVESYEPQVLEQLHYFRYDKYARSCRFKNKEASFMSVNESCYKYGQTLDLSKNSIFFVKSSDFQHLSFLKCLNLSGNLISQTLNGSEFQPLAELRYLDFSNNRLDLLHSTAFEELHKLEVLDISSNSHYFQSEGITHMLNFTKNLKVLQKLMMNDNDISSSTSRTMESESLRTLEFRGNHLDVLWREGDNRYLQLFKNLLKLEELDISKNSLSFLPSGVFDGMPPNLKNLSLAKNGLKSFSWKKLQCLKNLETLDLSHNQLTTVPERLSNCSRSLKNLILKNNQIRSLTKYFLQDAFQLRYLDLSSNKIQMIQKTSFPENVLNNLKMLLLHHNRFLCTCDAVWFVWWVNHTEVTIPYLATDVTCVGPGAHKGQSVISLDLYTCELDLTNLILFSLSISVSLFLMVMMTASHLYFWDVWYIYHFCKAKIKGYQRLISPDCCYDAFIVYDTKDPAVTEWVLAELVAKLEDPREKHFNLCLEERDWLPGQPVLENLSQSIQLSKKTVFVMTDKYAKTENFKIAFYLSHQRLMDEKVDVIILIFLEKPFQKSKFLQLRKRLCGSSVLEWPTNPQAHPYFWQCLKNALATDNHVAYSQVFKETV
Description: TLR7 inhibition reporter assay (HEK-Blue cells, SEAP reporter). To be noted: HEK-Blue cells overexpressing human TLR7; stimulated with gardiquimod 7.5 μM; SEAP read after 22 hour; dose range 0.05 nM-50 μM. On the procedure:
as §1

For the molecule `CC(C)N1CCN(c2ccc(-c3ccc4[nH]c(=O)c(-c5ccc(C(=O)N(C)C6COC6)cc5)cc4c3)cc2)CC1` [Example 13, N-methyl-N-(oxetan-3-yl)-4-(2-oxo-6-{4-[4-(propan-2-yl)piperazin-1-yl]phenyl}-1,2-dihydroquinolin-3-yl)benzamide], the half-inhibitory concentration (IC50) at human TLR9 is 122 nM; against human TLR8 it was not below 50000 nM; against human TLR7, 4890 nM.
The like results for `CC(C)N1CCN(c2ccc(-c3ccc4[nH]c(=O)c(-c5ccccc5C#N)cc4c3)cc2)CC1` [Example 15, 2-(2-oxo-6-{4-[4-(propan-2-yl)piperazin-1-yl]phenyl}-1,2-dihydroquinolin-3-yl)benzonitrile] were, in that order, 259 nM, 1030 nM and 459 nM.
`CC(C)N1CCN(c2ccc(-c3ccc4[nH]c(=O)c(-c5ccncc5)cc4c3)cc2)CC1` [Example 17, 6-{4-[4-(propan-2-yl)piperazin-1-yl]phenyl}-3-(pyridin-4-yl)-1,2-dihydroquinolin-2-one]: the IC50 against human TLR9 came out at 171 nM; at human TLR8, 949 nM; against human TLR7 it was 338 nM.
For `CC(C)N1CCN(c2ccc(-c3ccc4[nH]c(=O)c(-c5ccccc5)cc4c3)cc2)CC1` [Example 18, 3-phenyl-6-{4-[4-(propan-2-yl)piperazin-1-yl]phenyl}-1,2-dihydroquinolin-2-one] the same measures were 190 nM, 16300 nM and 16700 nM.
With `CC(C)N1CCN(c2ccc(-c3ccc4[nH]c(=O)c(-c5ccc(C(=O)N6CCCC6(C)C)cc5)cc4c3)cc2)CC1` [Example 19, 3-[4-(2,2-dimethylpyrrolidine-1-carbonyl)phenyl]-6-{4-[4-(propan-2-yl)piperazin-1-yl]phenyl}-1,2-dihydroquinolin-2-one], the figures for the concentration for half-maximal inhibition (IC50) at human TLR9, against human TLR8 and against human TLR7 were 200 nM, not below 50000 nM and 2400 nM, respectively.
For `CC(C)N1CCN(c2ccc(-c3ccc4[nH]c(=O)c(-c5cc(F)ccc5F)cc4c3)cc2)CC1` [Example 20, 3-(2,5-difluorophenyl)-6-{4-[4-(propan-2-vi)piperazin-1-yl]phenyl}-1,2-dihydroquinolin-2-one] the same measures were 203 nM, 5410 nM and 1560 nM.
For `CCCC(=O)Nc1ccc(-c2cc3cc(-c4ccc(N5CCN(C(C)C)CC5)cc4)ccc3[nH]c2=O)cc1` [Example 21, N-[4-(2-oxo-6-{4-[4-(propan-2-yl)piperazin-1-yl]phenyl}-1,2-dihydroquinolin-3-yl)phenyl]butanamide] the same measures were 214 nM, not below 50000 nM and not below 50000 nM.
As for `CC(C)N1CCN(c2ccc(-c3ccc4[nH]c(=O)c(-c5ccc(N6CC[C@H](F)C6)cc5)cc4c3)cc2)CC1` [Example 22, 3-{4-[(3S)-3-fluoropyrrolidin-1-yl]phenyl}-6-{4-[4-(propan-2-yl)piperazin-1-yl]phenyl}-1,2-dihydroquinolin-2-one], the figures for the IC50 on human TLR9, at human TLR8 and against human TLR7 were 216 nM, not below 50000 nM and not below 50000 nM, respectively.
Turning to `CC(C)N1CCN(c2ccc(-c3ccc4c(c3)cc(-c3ccc(N(C)S(C)(=O)=O)cc3)c(=O)n4C)cc2)CC1` [Example 23, N-methyl-N-[4-(1-methyl-2-oxo-6-{4-[4-(propan-2-yl)piperazin-1-yl]phenyl}-1,2-dihydroquinolin-3-yl)phenyl]methanesulfonamide], the IC50 at human TLR9 stood at 221 nM; on human TLR8, 36000 nM; against human TLR7 it was 5510 nM.
For `CC(C)N1CCN(c2ccc(-c3ccc4[nH]c(=O)c(-c5cccc(F)c5F)cc4c3)cc2)CC1` [Example 24, 3-(2,3-difluorophenyl)-6-{4-[4-(propan-2-yl)piperazin-1-yl]phenyl}-1,2-dihydroquinolin-2-one] the same measures were 224 nM, 15200 nM and 2000 nM.
For the molecule `Cc1ccccc1-c1cc2cc(-c3ccc(N4CCN(C(C)C)CC4)cc3)ccc2[nH]c1=O` [Example 25, 3-(2-methylphenyl)-6-{4-[4-(propan-2-yl)piperazin-1-yl]phenyl}-1,2-dihydroquinolin-2-one], the half-maximal inhibitory concentration (IC50) at human TLR9 came to 226 nM; at human TLR8 it was 1390 nM; against human TLR7, 6480 nM.

As a reminder, the IC50 is the concentration that inhibits the measured activity by half.
